Measured values: publication PMC11133627, “CATH-2-derived antimicrobial peptide inhibits multidrug-resistant Escherichia coli infection in chickens” (Frontiers in Cellular and Infection Microbiology, 2024)
Ends that are not written are not given here.

Experiments:
[1] = tested on: E. coli clinical isolate E14; test: microbe, parasite or virus in culture; format: cell-based, Escherichia coli; conditions: for MIC against E. coli E14: clinical isolate E14, 18 h; for MBC against E. coli E14: clinical isolate E14, 24 h
Protocol: (§1) The minimum inhibitory concentrations (MICs) of the AMPs were determined using the microbroth dilution technique ([van Harten et al., 2021]). One hundred microliters of bacterial suspension at a concentration of 1×10^6 CFU/mL was pipetted into a 96-well plate. Then, 100 μL of AMP or gentamicin at various concentrations was added, while the bacterial suspension without AMPs and blank medium were used as controls.

[2] = tested on: E. coli clinical isolate E12; test: microbe, parasite or virus in culture; format: cell-based, Escherichia coli; conditions: for MIC against E. coli E12: clinical isolate E12, 18 h; for MBC against E. coli E12: clinical isolate E12, 24 h
Protocol: as §1

[3] = tested on: E. coli clinical isolate E18; test: microbe, parasite or virus in culture; format: cell-based, Escherichia coli; conditions: for MIC against E. coli E18: clinical isolate E18, 18 h; for MBC against E. coli E18: clinical isolate E18, 24 h
Protocol: as §1

E. coli (ATCC 8739) [4] = test: microbe, parasite or virus in culture; format: cell-based, Escherichia coli; conditions: for MIC against E. coli ATCC 8739: ATCC 8739, 18 h; for MBC against E. coli ATCC 8739: ATCC 8739, 24 h
Protocol: as §1

[5] = tested on: E. coli clinical isolate E16; test: microbe, parasite or virus in culture; format: cell-based, Escherichia coli; conditions: for MIC against E. coli E16: clinical isolate E16, 18 h; for MBC against E. coli E16: clinical isolate E16, 24 h
Protocol: as §1

[6] = tested on: E. coli clinical isolate E9; test: microbe, parasite or virus in culture; format: cell-based, Escherichia coli; conditions: for MIC against E. coli E9: clinical isolate E9, 18 h; for MBC against E. coli E9: clinical isolate E9, 24 h
Protocol: as §1

[7] = tested on: E. coli clinical isolate E1; test: microbe, parasite or virus in culture
Protocol: as §1

E. coli (ATCC 8739) [8] = format: cell-based, Escherichia coli; conditions: ATCC 8739, 1 h
Protocol: The MICs of the AMPs against E. coli (ATCC 8739) at different temperatures and physiological salt concentrations were evaluated. The thermal stability of the AMPs was assessed by incubating them at a concentration of 500 μg/mL for 1h at 0, 37, and 100°C, using untreated AMPs as a control. The salt ion stability of the AMPs was determined by incubating them at a concentration of 500 μg/mL in solutions of NaCl (150 mM), KCl (4.5 mM), MgCl2 (1 mM), and CaCl2 (2.5 mM) for 1h, using untreated samples as controls. The changes in the MICs of the AMPs were assessed following these experimental procedures.

[9] = tested on: E. coli strains (ATCC 8739 and MDR clinical isolates); format: cell-based, Escherichia coli; conditions: ATCC 8739, 18 h
Protocol: as §1

E. coli (E16) = test: Chicken infection with MDR E. coli; format: in vivo
Protocol: Except for the blank control group injected with 500 μL of normal saline, the other four groups were injected with 500 μL of 3×10^9 CFU/mL E. coli (E16) into the pectoral muscles. […] Clinical symptoms and were observed and documented for the chickens in each group after infection. After 72h, the chickens in each group were euthanized and examined for internal organ damage. Paraffin sections were prepared for microscopic examination of pathological changes. Under sterile conditions, 1 g samples of heart, liver, and spleen were collected, and each sample was supplemented with 20 mL of sterile PBS. After thorough grinding, the sample was diluted to the appropriate multiple, and 100 μL of the diluent was spread onto LB agar medium. The plates were incubated for 24h, after which the colonies were counted.

[10] = tested on: E. coli clinical isolate E14; test: Drug-sensitivity test (paper disc, inhibition zone); format: cell-based, Escherichia coli; parameters: key to Drug sensitivity of E. coli E14: R: resistant strains; I: intermediate strains; S: sensitive strains; conditions: 6 mm antibiotic paper on LB agar, 1×10^6 CFU/mL, 24h 37°C, inhibition zone diameter
Protocol: (§2) E. coli (ATCC 8739) and clinical isolates of E. coli (E1, E9, E12, E14, E16, and E18) were stored at the Animal Biochemical Laboratory of Shanxi Agricultural University and grown in Luria-Bertani (LB) broth as previously reported ([Zhao et al., 2021]). Circular 6 mm paper pieces were prepared with filter paper and autoclaved for sterilization. […] Then, 0.5 mL of antibiotic solution was added to 100 sterilized papers. Subsequently, the paper pieces were fully infiltrated and dried in a vacuum drying oven to produce antibiotic susceptibility papers. The E. coli strain was retrieved from the -20°C freezer and activated by incubating it on LB agar media at 37°C for 24h. Individual colonies were selected and transferred to LB liquid media. Thereafter, the E. coli suspension was obtained by shaking at 37°C and 160 r/min for 18h. The obtained suspension was centrifuged at 5000 r/min for 5min, after which the supernatant was discarded, and the bacteria were resuspended in fresh medium to a concentration of 1×10^6 CFU/mL. Two hundred microliters of the bacterial suspension mentioned above was spread evenly onto LB agar medium. Then, the antibiotic susceptibility papers were placed on the medium surface using sterile tweezers. After 24h of incubation at 37°C, the diameter of the inhibition zone was measured to determine the susceptibility of E. coli to antibiotics.

[11] = tested on: E. coli clinical isolate E18; test: as above; format: cell-based, Escherichia coli; parameters: key: R: resistant strains; I: intermediate strains; S: sensitive strains; conditions: 6 mm antibiotic paper on LB agar, 1×10^6 CFU/mL, 24h 37°C, inhibition zone diameter
Protocol: as §2

E. coli (ATCC 8739) [12] = test: as above; format: cell-based, Escherichia coli; parameters: key: R: resistant strains; I: intermediate strains; S: sensitive strains; conditions: 6 mm antibiotic paper on LB agar, 1×10^6 CFU/mL, 24h 37°C, inhibition zone diameter
Protocol: as §2

[13] = tested on: E. coli clinical isolate E9; test: as above; format: cell-based, Escherichia coli; parameters: key: R: resistant strains; I: intermediate strains; S: sensitive strains; conditions: 6 mm antibiotic paper on LB agar, 1×10^6 CFU/mL, 24h 37°C, inhibition zone diameter
Protocol: as §2

[14] = tested on: E. coli clinical isolate E1; format: cell-based; parameters: key: R: resistant strains; I: intermediate strains; S: sensitive strains; conditions: 6 mm antibiotic paper on LB agar, 1×10^6 CFU/mL, 24h 37°C, inhibition zone diameter
Protocol: as §2

[15] = tested on: E. coli clinical isolate E12; test: Drug-sensitivity test (paper disc, inhibition zone); format: cell-based, Escherichia coli; parameters: key to Drug sensitivity of E. coli E12: R: resistant strains; I: intermediate strains; S: sensitive strains; conditions: 6 mm antibiotic paper on LB agar, 1×10^6 CFU/mL, 24h 37°C, inhibition zone diameter
Protocol: as §2

[16] = tested on: E. coli clinical isolate E16; test: as above; format: cell-based, Escherichia coli; parameters: key to Drug sensitivity of E. coli E16: R: resistant strains; I: intermediate strains; S: sensitive strains; conditions: 6 mm antibiotic paper on LB agar, 1×10^6 CFU/mL, 24h 37°C, inhibition zone diameter
Protocol: as §2

| Compound | MIC against E. coli E14 [1] | MBC against E. coli E14 [1] | MIC against E. coli E12 [2] | MBC against E. coli E12 [2] | MIC against E. coli E18 [3] | MBC against E. coli E18 [3] | MIC against E. coli ATCC 8739 (E. coli (ATCC 8739) [4]) | MBC against E. coli ATCC 8739 (E. coli (ATCC 8739) [4]) | MIC against E. coli E16 [5] | MBC against E. coli E16 [5] | MIC against E. coli E9 [6] | MBC against E. coli E9 [6] | MIC against E. coli E1 ([7]; clinical isolate E1, 18 h) | MIC against E. coli (ATCC 8739), Salt Stability CaCl2 (2.5 mM) (E. coli (ATCC 8739) [8]) | MIC against E. coli (ATCC 8739), Salt Stability KCl (4.5 mM) (E. coli (ATCC 8739) [8]) | MIC against E. coli (ATCC 8739), Salt Stability MgCl2 (1 mM) (E. coli (ATCC 8739) [8]) | MIC against E. coli (ATCC 8739), Salt Stability NaCl (150 mM) (E. coli (ATCC 8739) [8]) | MIC against E. coli (ATCC 8739), Thermal Stability 0°C (E. coli (ATCC 8739) [8]) | MIC against E. coli (ATCC 8739), Thermal Stability 37°C (E. coli (ATCC 8739) [8]) | MIC against E. coli (ATCC 8739), Thermal Stability 100°C (E. coli (ATCC 8739) [8]) | other results |
| --- | --- | --- | --- | --- | --- | --- | --- | --- | --- | --- | --- | --- | --- | --- | --- | --- | --- | --- | --- | --- | --- |
| RFGRNLRKIRRFWPK [C2-4] | 32 mg/L | 64 mg/L | 16 mg/L | 32 mg/L | 128 mg/L | 128 mg/L | 16 mg/L | 16 mg/L | 64 mg/L | 64 mg/L | 64 mg/L | 128 mg/L | 128 mg/L | 32 mg/L | 32 mg/L | 16 mg/L | 32 mg/L | 16 mg/L | 16 mg/L | 16 mg/L | MBC against E. coli E1 ([7]; clinical isolate E1, 24 h): 128 mg/L |
| RFGRFLRKIRRFIPK [C2-1] | 16 mg/L | 16 mg/L | 1 mg/L | 1 mg/L | 2 mg/L | 4 mg/L | 2 mg/L | 4 mg/L | 16 mg/L | 64 mg/L | 0.5 mg/L | 1 mg/L |  | 8 mg/L | 2 mg/L | 2 mg/L | 0.5 mg/L | 2 mg/L | 2 mg/L | 2 mg/L | MBC against E. coli E1 ([7]; 50 μL from fully inhibited wells plated on LB agar, colonies counted after 24h 37°C): 16 mg/L; MIC against E. coli E1 ([7]; microbroth dilution, 1×10^6 CFU/mL, 37°C 18h, turbidity): 16 mg/L; MIC range over E. coli strains [9]: 0.5 to 16 mg/L |
| RFGRFLRKIRRFRPK [CATH-2 (1-15), reference compound] | 64 mg/L |  | 8 mg/L | 8 mg/L | 64 mg/L | 64 mg/L | 64 mg/L | 64 mg/L | 32 mg/L | 64 mg/L | 4 mg/L | 4 mg/L |  | 64 mg/L | 16 mg/L | 16 mg/L | 32 mg/L | 64 mg/L | 64 mg/L | 32 mg/L |  |
| RFGRHLRKIIRFRIK [C2-3] | 8 mg/L | 8 mg/L | 1 mg/L | 1 mg/L | 16 mg/L | 32 mg/L | 16 mg/L | 16 mg/L | 16 mg/L | 64 mg/L | 2 mg/L | 4 mg/L | 32 mg/L | 8 mg/L | 4 mg/L | 4 mg/L | 16 mg/L | 16 mg/L | 16 mg/L | 8 mg/L | MBC against E. coli E1 ([7]; clinical isolate E1, 24 h): 64 mg/L |
| CCN1CCN(c2cc3c(cc2F)c(=O)c(C(=O)O)cn3C2CC2)CC1 [enrofloxacin] |  |  |  |  |  |  |  |  |  |  |  |  |  |  |  |  |  |  |  |  | 3-day mortality rate (E. coli (E16); 200 μg/mL, 500 μL into pectoral muscle 4h after 1.5×10^9 CFU E16): 50%; Survival rate compared with untreated group (in words) (E. coli (E16); 3 days): no difference in survival rate; Bacterial loads in the heart, liver and spleen (in words) (E. coli (E16); after 3 days of infection, vs infected untreated): affected only the heart bacterial load; Drug sensitivity of E. coli E14 [10]: R; Drug sensitivity of E. coli E18 [11]: R; Drug sensitivity of E. coli ATCC 8739 (E. coli (ATCC 8739) [12]): S; Drug sensitivity of E. coli E9 [13]: R; Drug sensitivity of E. coli E1 [14]: R; Drug sensitivity of E. coli E12 [15]: R; Drug sensitivity of E. coli E16 [16]: R |
| RFGRFLRKIRFFRLK [C2-5] | 8 mg/L | 8 mg/L | 8 mg/L | 8 mg/L | 16 mg/L | 32 mg/L | 1 mg/L | 1 mg/L | 16 mg/L | 16 mg/L | 64 mg/L | 128 mg/L | 8 mg/L | 8 mg/L | 4 mg/L | 4 mg/L | 4 mg/L | 1 mg/L | 1 mg/L | 4 mg/L | MBC against E. coli E1 ([7]; clinical isolate E1, 24 h): 8 mg/L |
